The values that follow are results of earlier work, collected in patent US20120064155A1, “ORAL PHARMACEUTICAL COMPOSITION FOR USE IN RESPIRATORY DISEASES” (LABORATORIOS SENOSIAIN S.A. DE C.V., priority 2009, published 2012).

In brackets after ≈: the same amount, converted by molar mass.

For data set [1] the following is noted: after oral administration; approximately.

Regarding `CCOC(=O)N1CCC(=C2c3ccc(Cl)cc3CCc3cccnc32)CC1` [Loratadine], in data set [1], the “start of antihistamine effect” value is at most 30 min. For `CNC[C@H](O)c1cccc(O)c1` [Phenylephrine], the water solubility was 100 mg/mL (≈ 598 mM). In addition, the “bound to plasma proteins” value with plasma proteins is listed as 95%.
